# Experimental data reported in patent US12296009B2, “Immunogenic composition for the treatment of cancer” (APGEN THERAPUETICS AB, priority 2017, dated 2025).
# Columns and labels:
# ROAL tumor cells = experiment: Co-culture of pretreated ROAL tumor cells with autologous TIL, IFNγ ELISA on supernatant; assay type: cell-based, human
# Description: (§1) Cells were subsequently trypsinized, washed and co-cultured for 24 hours with autologous tumor-infiltrating lymphocytes (TIL). Co-culture supernatants were assessed by ELISA for IFNγ levels, as a measure for tumor recognition by the TIL.
# (§2) The early-passage melanoma cell lines ANRU, ROAL and KADA were established from patients at the oncology clinic at Karolinska University Hospital (ethical permit: #2011/143-32/1) based on a published protocol.21 Mycoplasma-free (MycoAlert kit) cell lines were in their 15th to 45th passage when used in this study.
# (§3) Culture and expansion of tumor-infiltrating lymphocytes was done as published before.^4 A piece of the tumor (approximately 0.5 cm3) was minced into 1 mm3 pieces. Each piece was placed in one well of a 24-well plate containing 1 mL/well CellGro medium supplemented with 2% autologous plasma (generated by centrifugation and heat-inactivation of plasma collected on the day of surgery) and 6,000 IU/mL IL-2 (Proleukin, Novartis, Basel, Switzerland). On day 1 of culture, half of the medium volume in each well was replaced with fresh medium supplemented with plasma and IL-2. After 3-4 days of culture, lymphocytes could usually be seen emerging from the tumor piece. Cultures were monitored regularly and split before reaching confluence. After approximately 2 weeks, expanding wells were pooled and counted. […] At the end of culture, cells were harvested, pooled, characterized, counted and frozen.
# (§4) We show herein that treating patient-derived early-passage melanoma cell lines with JQ1 enhances recognition by autologous TIL. […] Along with this, PD-L1 and HLA class I expression were assessed by flow cytometry in pretreated tumor cells to find out whether functional observations in the tumor-TIL co-cultures would be associated with changes in PD-L1 expression or HLA class I expression, both markers being key determinants of T-cell activation upon target cell recognition.
# ANRU tumor cells = experiment: Co-culture of pretreated ANRU tumor cells with autologous TIL, IFNγ ELISA on supernatant; assay type: cell-based, human; conditions: for Time kinetics of sensitization for recognition by TIL: ANRU pretreated 12, 24, 48 and 72 hours; for Time kinetics of sensitization for recognition by TIL / T-cell recognition by autologous TIL (IFNγ production in co-culture): 24 hours co-culture
# Description: Tumor cells were also co-cultured with unsorted TIL, and TIL without specificity for the aforementioned tumor antigens (designated ‘neg’).
# as §1, §2
# Culture and expansion of tumor-infiltrating lymphocytes was done as published before.^4 A piece of the tumor (approximately 0.5 cm3) was minced into 1 mm3 pieces. Each piece was placed in one well of a 24-well plate containing 1 mL/well CellGro medium supplemented with 2% autologous plasma (generated by centrifugation and heat-inactivation of plasma collected on the day of surgery) and 6,000 IU/mL IL-2 (Proleukin, Novartis, Basel, Switzerland). On day 1 of culture, half of the medium volume in each well was replaced with fresh medium supplemented with plasma and IL-2. After 3-4 days of culture, lymphocytes could usually be seen emerging from the tumor piece. Cultures were monitored regularly and split before reaching confluence. After approximately 2 weeks, expanding wells were pooled and counted. To generate large T cell numbers, TIL were cultured for approximately 14 days in presence of autologous, irradiated feeders (40 Gy, TIL:feeder ratio 1:50-1:80) with 300 IU/mL IL-2 and 30 ng/mL anti-CD3 antibody (OKT3, Cilag, Zug, Switzerland). Cells were split or medium exchanged as necessary. Cultures were initiated in standing T75 flasks, but transferred to VueLife cell culture bags 1 week before harvest. At the end of culture, cells were harvested, pooled, characterized, counted and frozen.
# as §4
# To test this, we co-cultured ANRU tumor cells for 24 hours with autologous TIL in the presence and absence of a PD-L1 blocking antibody. Suitable PD-L1 blocking antibodies are commercially available, and include anti-human CD274 (B7-H1, PD-L1) Antibody (clone 29E.2A3; Cat No. 329709; Biolegend), anti-human CD274 (B7-H1, PD-L1) Antibody (clone MIH3; Cat No. 374502; Biolegend), Anti-PD-L1 (CD274) Neutralizing Antibody (Cat No. 71213; BPS Bioscience), PD-L1/B7-H1/CD274 Blocking Antibody (clone R639; Cat No. 10084-R639; Sino Biological) and Human PD-L1/B7-H1 Antibody (Cat No. AF156; R and D Systems). Tumors cell were pretreated for 12, 24, 48 and 72 hours, to check for any PD-L1 induction or suppression over time by flow cytometry, and to define the time kinetics of JQ1-induced sensitization of tumors for recognition by TIL in a co-culture. We reasoned that recognition by autologous TIL should not be affected by PD-L1 blockade at any time point if ANRU tumor cells would be PD-L1 negative under all conditions.
# Herein, we addressed the question whether enhanced tumor recognition by autologous TIL after JQ1 treatment is directed at tumor-associated antigens or tumor-specific mutant antigens. Therefore we co-cultured ANRU cells with TIL sorted for their specifity towards either the tumor-associated antigen MART-1, or two different tumor-specific mutant antigens, designated ETV6.9 and NUP210.
# KADA tumor cells = experiment: Co-culture of pretreated KADA tumor cells with autologous TIL, IFNγ ELISA on supernatant; assay type: cell-based, human
# Description: as §1, §2, §3, §4
# HLA class I = HLA class I expression on tumor cells by flow cytometry; assay type: cell-based, human; conditions: for HLA class I induction by IFNγ in combination with BETi: increasing BETi concentrations with a standard concentration of IFNγ (FIG. 5)
# Description: (§5) Flow cytometry was done after staining with the following antibodies: anti-human HLA-ABC APC-Cy7 (clone W6/32; Biolegend, San Diego, CA, USA), CD274 BV786 (clone MIH1; BD Biosciences, Franklin lakes, NJ, USA). All data were acquired on a Novocyte 2000 [?] flow cytometer (Acea Biosciences, San Diego, CA, USA) were analyzed using FlowJo software version 10 (Treestar).
# as §4
# [1] = tested on: antigen-presentation machinery (APM); experiment: Western blot of antigen-presentation machinery components; assay type: cell-based, human; conditions: ANRU, ROAL, KADA and A375 cells, 72 hours JQ1 and/or IFNγ; most clearly in A375
# Description: (§6) This was most apparent for HLA class I heavy chain, and overall was most clearly seen in A375 cells.
# (§7) To study the time kinetics of these effects, the ANRU cell line was treated in the same way for 12, 24, 48 and 72 hours. […] This was most apparent for HLA class I heavy chain, and overall was most clearly seen in A375 cells.
# STAT1 = STAT1 mRNA expression by RT-qPCR; assay type: cell-based, human; conditions: ANRU, ROAL and A375 cells, JQ1 with IFNγ
# From the text: (§8) (B) mRNA expression levels, measured by RT-qPCR, in ANRU, ROAL and A375 cells of STAT1 and JAK1, two proteins crucially involved in signaling downstream of IFNγ ligation to its cognate receptor.
# JAK1 = JAK1 mRNA expression by RT-qPCR; assay type: cell-based, human; conditions: ANRU, ROAL and A375 cells, JQ1 by itself and in combination
# From the text: as §8
# HLA class II = HLA class II expression on tumor cells by flow cytometry; assay type: cell-based, human
# MYC = MYC expression by western blot; assay type: cell-based; conditions: 72 hours JQ1 alone or in combination with IFNγ
# IDO = IDO expression in tumor cells by flow cytometry; assay type: cell-based, human; conditions: early-passage melanoma cell lines, 72 hours JQ1 and/or IFNγ (FIG. 6)
# PD-L1 = PD-L1 expression on tumor cells by flow cytometry; assay type: cell-based, human; conditions: 72 hours JQ1 and/or IFNγ
# Description: as §5, §4
# A375 tumor cells = experiment: Co-culture of pretreated A375 tumor cells with allogeneic T cells, IFNγ ELISA on supernatant; assay type: cell-based, human; conditions: A375, 72 hours JQ1 alone or in combination with IFNγ, 24 hours co-culture with allogeneic T cells
# CD73 = CD73 expression on tumor cell lines by flow cytometry; assay type: cell-based; conditions: commercially available human tumor cell lines of various origins, 72 hours JQ1 and/or IFNγ (FIG. 7)
# [2] = tested on: antigen-presentation machinery (APM); experiment: mRNA expression of antigen-presentation machinery components by qPCR; assay type: cell-based, human
# Description: as §6
# Moreover, the presence of a HLA class I blocking antibody always fully abrogated T-cell recognition in co-cultures with pretreated tumors. […] Therefore, we studied mRNA and protein expression of well-known components of the antigen-presentation machinery (APM) after pretreatment with JQ1 alone and/or IFNγ.
# as §7
# [3] = pretreatment with the substance alone
# [4] = ANRU, 72 hours pretreatment with the substance alone
# [5] = ANRU, 72 hours, IFNγ in the presence of JQ1
molecule,measurement,setting,value
"IFNγ: Interferon gamma (IFNγ), a known physiological cue for sensitization of target cells for T-cell recognition",Recognition by autologous TIL (IFNγ production in co-culture),ROAL tumor cells; [3],did not sensitize the cells
same,Time kinetics of sensitization for recognition by TIL,ANRU tumor cells,did not lead to an improvement of tumor recognition
same,T-cell recognition by autologous TIL (IFNγ production in co-culture),ANRU tumor cells; [4],did not lead to any increases in T-cell recognition
same,Recognition by autologous TIL (IFNγ production in co-culture),KADA tumor cells; [3],strongly sensitized
CCNC(=O)C[C@@H]1N=C(c2ccc(Cl)cc2)c2cc(OC)ccc2-n2c(C)nnc21 [I-BET762],HLA class I induction by IFNγ in combination with BETi,"HLA class I; A375, 72 hours",clearly increased
same,HLA class I induction by IFNγ in combination with BETi,"HLA class I; ROAL, 72 hours",clearly increased
Cc1sc2c(c1C)C(c1ccc(Cl)cc1)=N[C@@H](CC(=O)OC(C)(C)C)c1nnc(C)n1-2 [JQ1],"Protein level induction of APM components by IFNγ (TAP1, TAP2, Tapasin, HLA class I heavy chain, LMP2, LMP10)",[1],Enhanced induction of APM components by IFNγ
same,STAT1 mRNA induction by IFNγ,STAT1,strongly enhances induction of STAT1 by IFNγ
same,JAK1 mRNA expression,JAK1,consistently increases JAK1 expression
same,Recognition by autologous TIL (IFNγ production in co-culture),ROAL tumor cells; pretreatment with combination of JQ1 and IFNγ,significantly better and synergistically recognize
same,Recognition by autologous TIL (IFNγ production in co-culture),ROAL tumor cells; [3],did not sensitize
same,HLA class II upregulation by IFNγ,HLA class II; [5],upregulation of HLA class II was actually suppressed
same,Constitutive and IFNγ-induced HLA class II expression,"HLA class II; early-passage melanoma cell lines, 72 hours JQ1 and/or IFNγ (FIG. 6)",clearly suppressed
same,MYC expression,MYC,downregulated
same,IFNγ-induced IDO expression,IDO,suppresses IFNγ-induced IDO expression
same,HLA class I induction by IFNγ,"HLA class I; A375, 72 hours, IFNγ in the presence of JQ1 (FIG. 1)",enhances HLA class I induction by IFNγ
same,HLA class I induction by IFNγ in combination with BETi,"HLA class I; A375, 72 hours",clear dose-dependent enhancement of HLA class I induction by IFNγ
same,HLA class I induction by IFNγ,"HLA class I; A549 (lung carcinoma), 72 hours JQ1 and/or IFNγ",enhances HLA class I induction by IFNγ
same,HLA class I induction by IFNγ,HLA class I; [5],consistent enhancement of HLA class I induction by IFNγ
same,HLA class I induction by IFNγ,"HLA class I; HCT116 (colon carcinoma), 72 hours JQ1 and/or IFNγ",enhances HLA class I induction by IFNγ
same,HLA class I induction by IFNγ,"HLA class I; HeLa (cervical carcinoma), 72 hours JQ1 and/or IFNγ",enhances HLA class I induction by IFNγ
same,HLA class I induction by IFNγ,"HLA class I; KADA, 72 hours, IFNγ in the presence of JQ1",reduced HLA class I induction by IFNγ
same,HLA class I induction by IFNγ,"HLA class I; ROAL, 72 hours, IFNγ in the presence of JQ1",significantly more strongly induced by IFNγ
same,HLA class I induction by IFNγ in combination with BETi,"HLA class I; ROAL, 72 hours",clear dose-dependent enhancement of HLA class I induction by IFNγ
same,PD-L1 expression,PD-L1; ANRU,wholly absent under all conditions
same,Constitutive and IFNγ-induced PD-L1 expression,PD-L1; KADA,strongly suppressed
same,PD-L1 expression,PD-L1; ROAL,marginal if not absent under all conditions
same,T-cell recognition (IFNγ levels in co-culture supernatants) compared to DMSO-treated tumor cells,A375 tumor cells,strongly and significantly enhanced
same,Effect of PD-L1 blocking antibody on recognition of pretreated tumor cells by TIL,"ANRU tumor cells; ANRU pretreated 12, 24, 48 and 72 hours with JQ1 and/or IFNγ, 24 hours co-culture with or without PD-L1 blocking antibody",no effect of PD-L1 blockade was seen
same,Time kinetics of sensitization for recognition by TIL,ANRU tumor cells,most prominent after pretreatment with JQ1 alone for 72 hours
same,"Recognition by TIL sorted for MART-1, ETV6.9 and NUP210 specificity (IFNγ in co-culture supernatant)","ANRU tumor cells; ANRU, 0.4 μM JQ1 for 72 hours",improved recognition by all three TIL populations
same,T-cell recognition by autologous TIL (IFNγ production in co-culture),"ANRU tumor cells; ANRU, 72 hours pretreatment with JQ1 in combination with IFNγ",did not lead to any increases in T-cell recognition
same,T-cell recognition by autologous TIL (IFNγ production in co-culture),ANRU tumor cells; [4],dose-dependent increase in T-cell recognition
same,CD73 induction by IFNγ,CD73,suppresses CD73 induction by IFNγ
same,"mRNA induction of APM components by IFNγ, time kinetics","[2]; ANRU, 12, 24, 48 and 72 hours, 0.4 μM JQ1 and/or 25 ng/ml IFNγ",potentiated the induction of APM components by IFNγ at all time points
same,mRNA induction of APM components by IFNγ,"[2]; ANRU, ROAL, KADA and A375 cells, 72 hours JQ1 and/or IFNγ, most pronounced for HLA class I, B2M, TAP1 and TAP2",potentiated their induction by IFNγ
same,Recognition by autologous TIL (IFNγ production in co-culture),"KADA tumor cells; pretreatment with combination of IFNγ and JQ1, versus IFNγ",led to a reduction in tumor cell recognition
same,Recognition by autologous TIL (IFNγ production in co-culture),KADA tumor cells; [3],did not sensitize
COc1cc2c(cc1-c1c(C)noc1C)ncc1[nH]c(=O)n([C@H](C)c3ccccn3)c12 [I-BET151],HLA class I induction by IFNγ in combination with BETi,"HLA class I; A375, 72 hours",clearly increased
same,HLA class I induction by IFNγ in combination with BETi,"HLA class I; ROAL, 72 hours",clearly increased
